Reference: patent US7718670B2 (dated 2010)

| melting point [°C] | Compound |
| --- | --- |
| 142 | O=C(N[C@H]1CN2CCC1CC2)C(Cc1ccccc1)c1ccccc1 (stereo partly shown) |
| 136 | CCCCC(C(=O)N[C@H]1CN2CCC1CC2)c1ccccc1 (stereo partly shown) |
| 54.4 to 58.3 | C=CCC(O)(C(=O)N[C@H]1CN2CCC1CC2)c1cccs1 (stereo partly shown) |
| 69.8 to 73.3 | O=C(N[C@H]1CN2CCC1CC2)C(O)(c1ccccc1)C1CCCC1 (stereo partly shown) |

The remaining lines, values behind:

| Compound | melting point [°C] |
| --- | --- |
| O=C(NC1C[N+]2(CCCOc3ccccc3)CCC1CC2)C1(O)c2ccccc2-c2ccccc21.[Br-] (stereo not shown) | 264 |
| C[N+]12CCC(CC1)C(NC(=O)C1c3ccccc3Oc3ccccc31)C2.[Br-] (stereo not shown) | 318 |
| C[N+]12CCC(CC1)C(NC(=O)C1(O)c3ccccc3-c3ccccc31)C2.[Br-] (stereo not shown) | 197.5 to 203.6 |
